PMC8972196, “A Set of Experimentally Validated Decoys for the Human CC Chemokine Receptor 7 (CCR7) Obtained by Virtual Screening” (Frontiers in Pharmacology, 2022)
Where two headings read alike, the source gives them in different places.

Target: T1, human CCR7 (Homo sapiens, UniProt P32248)
T1 construct: expressed in transfected cells
T1 sequence (P32248 25-378): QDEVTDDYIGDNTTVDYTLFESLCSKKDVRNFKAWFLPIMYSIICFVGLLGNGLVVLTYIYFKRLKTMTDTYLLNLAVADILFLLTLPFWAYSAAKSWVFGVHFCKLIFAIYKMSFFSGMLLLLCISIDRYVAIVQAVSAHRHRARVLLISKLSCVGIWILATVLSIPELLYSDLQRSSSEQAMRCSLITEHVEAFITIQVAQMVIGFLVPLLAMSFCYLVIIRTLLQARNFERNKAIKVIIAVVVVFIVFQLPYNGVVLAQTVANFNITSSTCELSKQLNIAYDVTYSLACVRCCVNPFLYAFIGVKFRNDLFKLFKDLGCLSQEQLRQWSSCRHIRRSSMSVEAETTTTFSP
Assay: CCL19-induced calcium mobilization assay, U87.CD4 cells expressing CCR7
Format: cell-based
Description: U87.CD4 cells that stably express either human CCR7, CXCR2, CCR5 or CXCR4 were seeded (20,000 cells/well) in gelatin-coated black-walled polystyrene 96-well plates with clear bottom and incubated overnight at 37°C and 5% CO2. […] Culture medium was removed, and cells were incubated for 45 min at room temperature in the dark. […] Exactly the same protocol was used to record calcium responses in Chinese hamster ovary (CHO)-K1 cells, upon stimulation with adenosine triphosphate (ATP, purchased from Sigma).

[1] = classification as decoy or active on CCR7
[2] = CCL19-induced calcium signaling, read-out: IC50 [μM] block CCL19 induced calcium signaling
[3] = classification of tested compounds as decoy or active
[4] = CCL19 induced calcium signaling, read-out: IC50 [μM] block CCL19 induced calcium signaling

Decoy – 0 Active – 1 [1]	IC50 [2] [µM]	Decoy – 0 Active – 1 [3]	IC50 [4] [µM]	Structure (SMILES)	IC50 [µM]
	> 30	0		COC(=O)/C(=C\NC(=S)N/C=C(/OC(=N)c1ccccc1)C(=O)OC)NC(=O)c1ccccc1 [C042, S=C(N/C=C(C(OC)=O)/NC(C1=CC=CC=C1)=O)N/C=C(C(OC)=O)/OC(C2=CC=CC=C2)=N]	
	> 50	0		CC(C)[C@@H](NC(=O)CCN1CCCCCC1=O)c1ccccc1 [C112, CC(C)[C@@H](NC(=O)CCN1CCCCCC1=O)c1ccccc1]	
	> 30	0		Cc1sc(NC(=S)NC(=O)CCc2ccccc2)c(C(N)=O)c1C [C029, Cc1sc(NC(=S)NC(=O)CCc2ccccc2)c(C(N)=O)c1C]	
	> 50	0		CN(C)C(=O)Cn1cccc(NC(=O)CCC(C)(C)c2ccccc2)c1=O [C128, CN(C)C(=O)Cn1cccc(NC(=O)CCC(C)(C)c2ccccc2)c1=O]	
	> 50	0		CN(C)C(=O)c1cccc(CN2CCC[C@@H]2C[C@H](O)c2cnn(C)c2)c1 [C110, CN(C)C(=O)c1cccc(C[N@@H+]2CCC[C@@H]2C[C@H](O)c2cnn(C)c2)c1]	
0			> 50	O=c1[nH]c(NCC(O)c2ccc3ccccc3c2)nc2ccccc12 (centres unmarked) [C219, O=c1[nH]c(NCC(O)c2ccc3ccccc3c2)nc2ccccc12]	
	> 10	0		CCNC(=O)c1cccc(NC(=O)CN(Cc2ccco2)C2CCCC2)c1 [C063, CCNC(=O)c1cccc(NC(=O)C[NH+](Cc2ccco2)C2CCCC2)c1]	
0			> 50	O=C1CCC(C(=O)NC(c2ccc(F)cc2)C(F)(F)F)N1 (centres unmarked) [C204, O=C1CCC(C(=O)NC(c2ccc(F)cc2)C(F)(F)F)N1]	
0			> 50	O=S(=O)(c1cccc(F)c1)N1CC(c2cccnc2)C(c2nc(C3CCCC3)no2)C1 (centres unmarked) [C246, c1cc(cc(c1)S(=O)(=O)N2CC(C(C2)c3nc(no3)C4CCCC4)c5cccnc5)F]	
0			> 50	O=C1CC(NCc2nc3ccccc3[nH]2)CN1Cc1ccccc1C(F)(F)F (centres unmarked) [C277, O=C1CC(NCc2nc3ccccc3[nH]2)CN1Cc1ccccc1C(F)(F)F]	
	> 50	0		O=c1c(NCc2cc(C(F)(F)F)cc(C(F)(F)F)c2)c(NCc2cc(C(F)(F)F)cc(C(F)(F)F)c2)c1=O [C017, O=C1C(NCC2=CC(C(F)(F)F)=CC(C(F)(F)F)=C2)=C(NCC3=CC(C(F)(F)F)=CC(C(F)(F)F)=C3)C1=O]	
	> 50	0		Cn1ccnc1[C@H](NC1=NS(=O)(=O)c2ccccc21)c1cccc(F)c1 [C153, Cn1ccnc1[C@H](NC1=NS(=O)(=O)c2ccccc21)c1cccc(F)c1]	
	> 10	0		CN(C)CC(C)(C)CNC(=O)C(=O)Nc1cccc(C(=O)N(C)C)c1 [C070, CN(C)C(=O)c1cccc(NC(=O)C(=O)NCC(C)(C)C[NH+](C)C)c1]	
	> 10	0		CN(C)C(=O)c1ccc(Cl)c(NCC(=O)N(C)Cc2ccco2)c1 [C061, CN(C)C(=O)c1ccc(Cl)c(NCC(=O)N(C)Cc2ccco2)c1]	
	> 10	0		CC(=O)Nc1cccc(NCC(=O)N(Cc2ccc(C)o2)C2CC2)c1 [C054, CC(=O)Nc1cccc(NCC(=O)N(Cc2ccc(C)o2)C2CC2)c1]	
	> 50	0		C[C@@H](CNC(=O)N[C@H]1CCC[C@@H](S(C)(=O)=O)C1)c1cccs1 [C118, C[C@@H](CNC(=O)N[C@H]1CCC[C@@H](S(C)(=O)=O)C1)c1cccs1]	

Decoy – 0 Active – 1 [1]	IC50 [2] [µM]	Decoy – 0 Active – 1 [3]	IC50 [4] [µM]	Structure (SMILES)	IC50 [µM]
0			> 50	Cn1cc(C2CN(S(=O)(=O)c3ccc4c(c3)CCCC4)CC2CO)cn1 (centres unmarked) [C269, Cn1cc(cn1)C2CN(CC2CO)S(=O)(=O)c3ccc4c(c3)CCCC4]	
	> 50	0		O=C([C@@H]1CCCO1)N1CCc2ncnc(NCCc3ccco3)c2CC1 [C086, O=C([C@@H]1CCCO1)N1CCc2ncnc(NCCc3ccco3)c2CC1]	
	> 50	0		O=c1c(Nc2cc(C(F)(F)F)cc(C(F)(F)F)c2)c(N[C@H]2CCCC[C@@H]2N2CCCCC2)c1=O [C023, O=C1C(N[C@H]2CCCC[C@@H]2N3CCCCC3)=C(NC4=CC(C(F)(F)F)=CC(C(F)(F)F)=C4)C1=O]	
0			> 50	Cc1cccc(C)c1NC(=O)c1cc(S(N)(=O)=O)c(Cl)cc1O [C179, Cc1cccc(C)c1NC(=O)c1cc(S(N)(=O)=O)c(Cl)cc1O]	
	> 10	0		Cc1ccc(NCC(=O)NCc2ccco2)cc1C(=O)N(C)C [C057, Cc1ccc(NCC(=O)NCc2ccco2)cc1C(=O)N(C)C]	
0			> 50	Cc1ccn(C)c(=O)c1NC(=O)NC1CCCc2ccc(Cl)cc21 (centres unmarked) [C196, Cc1ccn(C)c(=O)c1NC(=O)NC1CCCc2ccc(Cl)cc21]	
0			> 50	Cc1cccc(-c2cccc(C(=O)N3CC(O)CC3C(=O)O)c2)c1 (centres unmarked) [C187, Cc1cccc(-c2cccc(C(=O)N3CC(O)CC3C(=O)[O-])c2)c1]	
	> 10	0		CN(C)C(=O)c1cccc(NCC(=O)NCC2(c3ccccc3)CCC2)c1 [C052, CN(C)C(=O)c1cccc(NCC(=O)NCC2(c3ccccc3)CCC2)c1]	
	> 50	0		O=C(N[C@@H](c1nccs1)C1CC1)c1cc(N2CCOCC2)ccn1 [C147, O=C(N[C@@H](c1nccs1)C1CC1)c1cc(N2CCOCC2)cc[nH+]1]	
	> 50	0		COc1ccc([N+](=O)[O-])c(C(=O)N[C@@H](c2ncccc2C)C(C)C)c1 [C135, COc1ccc([N+](=O)[O-])c(C(=O)N[C@@H](c2ncccc2C)C(C)C)c1]	
0			> 50	O=C1CC(C(=O)N2CCCC2c2cccs2)CN1c1cccc2ccccc12 (centres unmarked) [C230, O=C1CC(C(=O)N2CCCC2c2cccs2)CN1c1cccc2ccccc12]	
	> 50	0		O=C(O[C@@H]1CS(=O)(=O)C[C@@H]1Nc1ccccc1)c1ccccc1 [C123, O=C(O[C@@H]1CS(=O)(=O)C[C@@H]1Nc1ccccc1)c1ccccc1]	
	> 50	0		C/N=C(\NCCC(=O)N(C)C)N[C@H](C)c1ccc(C)o1 [C140, C/[NH+]=C(\NCCC(=O)N(C)C)N[C@H](C)c1ccc(C)o1]	
	> 50	0		O=S1(=O)N=C(NCc2ccco2)c2ccccc21 [C148, O=S1(=O)N=C(NCc2ccco2)c2ccccc21]	
	> 50	0		CCn1nccc1[C@H]1NC(=O)CC[C@H]1NC(=O)c1cc(C)n(C)n1 [C152, CCn1nccc1[C@H]1NC(=O)CC[C@H]1NC(=O)c1cc(C)n(C)n1]	
	> 30	0		O=C1NCCN1CCNC(=S)Nc1cc(C(F)(F)F)cc(C(F)(F)F)c1 [C034, FC(F)(F)c1cc(NC(=S)NCCN2CCNC2=O)cc(c1)C(F)(F)F]	

Structure (SMILES)	Decoy – 0 Active – 1 [1]	IC50 [2] [µM]	Decoy – 0 Active – 1 [3]	IC50 [4] [µM]	IC50 [µM]
CCN(CC)C(CNC(=O)c1ccc(C)[nH]c1=O)Cc1ccccc1 (centres unmarked) [C283, CCN(CC)C(CNC(=O)c1ccc(C)[nH]c1=O)Cc1ccccc1]	0				> 50
COc1ccc(C)cc1NC(=S)N1CCN(c2ccccc2O)CC1 [C026, COc1ccc(C)cc1NC(=S)N1CCN(CC1)c1ccccc1O]		> 30	0		
O=C([C@@H]1C[C@@H]1c1ccco1)N1CCC[C@H]1Cc1ccc(F)cc1 [C154, O=C([C@@H]1C[C@@H]1c1ccco1)N1CCC[C@H]1Cc1ccc(F)cc1]		> 50	0		
CNC(=O)CN(c1ccc(Cl)cc1)S(=O)(=O)c1ccc(OC)c(OC)c1 [C270, CNC(=O)CN(c1ccc(cc1)Cl)S(=O)(=O)c2ccc(c(c2)OC)OC]	0			> 50	
Cc1ccc(S(=O)(=O)N(C)c2ccccc2C(=O)NCc2ccco2)cc1 [C240, Cc1ccc(cc1)S(=O)(=O)N(C)c2ccccc2C(=O)NCc3ccco3]	0			> 50	
O=C(NCC(C1CC1)C1CC1)N1CCC(O)(C(F)(F)F)CC1 [C166, O=C(NCC(C1CC1)C1CC1)N1CCC(O)(C(F)(F)F)CC1]	0			> 50	
O=C(Nc1ccc(Cl)cc1Cl)NC(Cc1ccc(O)cc1)C(=O)O (centres unmarked) [C184, O=C(Nc1ccc(Cl)cc1Cl)NC(Cc1ccc(O)cc1)C(=O)[O-]]	0			> 50	
CCOC(=O)NC(=S)Nc1cc(C)nc(C)n1 [C046, CC1=NC(NC(NC(OCC)=O)=S)=CC(C)=N1]		> 30	0		
Cc1oc2ccccc2c1CNC(=O)N1CCC(C)(CO)CC1 [C167, Cc1oc2ccccc2c1CNC(=O)N1CCC(C)(CO)CC1]	0			> 50	
CNC(=O)c1cccc(NC(=O)N[C@H](C)Cc2ccc(C)s2)c1C [C115, CNC(=O)c1cccc(NC(=O)N[C@H](C)Cc2ccc(C)s2)c1C]			0		> 50
Cc1ccc(S(=O)(=O)N(CC(=O)Nc2cccc([N+](=O)[O-])c2)Cc2ccc(F)cc2)cc1 [C236, Cc1ccc(cc1)S(=O)(=O)N(Cc2ccc(cc2)F)CC(=O)Nc3cccc(c3)[N+](=O)[O-]]	0			> 50	
